In paper PMC8863579, “Effects of pharmacological inhibition of the sodium‐dependent phosphate cotransporter 2b (NPT2b) on intestinal phosphate absorption in mouse and rat models” (Pharmacology Research & Perspectives, 2022):
Read-outs that look alike come from different tables or passages of the source.

Target: T1, intestinal NPT2b (Mus musculus, UniProt Q9DBP0)
T1 construct: from tissue; host or cells: intestine of live male C57BL/6 mice, oral dosing
T1 sequence (Q9DBP0 1-697): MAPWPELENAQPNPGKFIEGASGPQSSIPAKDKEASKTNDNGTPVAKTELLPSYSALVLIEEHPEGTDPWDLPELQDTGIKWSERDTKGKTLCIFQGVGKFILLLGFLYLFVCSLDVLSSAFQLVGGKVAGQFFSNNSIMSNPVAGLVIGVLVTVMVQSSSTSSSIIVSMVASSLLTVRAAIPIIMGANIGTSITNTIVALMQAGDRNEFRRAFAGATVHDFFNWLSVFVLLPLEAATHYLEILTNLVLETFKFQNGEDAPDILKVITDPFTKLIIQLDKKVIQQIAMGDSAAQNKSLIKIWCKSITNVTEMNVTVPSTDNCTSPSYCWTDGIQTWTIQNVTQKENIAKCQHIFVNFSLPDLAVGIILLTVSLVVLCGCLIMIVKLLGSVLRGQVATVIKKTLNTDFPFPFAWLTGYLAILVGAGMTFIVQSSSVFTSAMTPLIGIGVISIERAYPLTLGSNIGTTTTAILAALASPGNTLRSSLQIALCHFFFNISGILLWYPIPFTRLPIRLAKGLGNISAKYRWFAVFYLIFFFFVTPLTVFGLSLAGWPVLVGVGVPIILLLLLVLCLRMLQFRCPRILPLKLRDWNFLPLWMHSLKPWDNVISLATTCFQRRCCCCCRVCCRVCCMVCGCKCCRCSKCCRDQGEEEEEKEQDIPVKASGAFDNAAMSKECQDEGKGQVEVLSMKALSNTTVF
Test: Acute phosphate uptake into plasma in mice
Type: in vivo
Conditions: for ED50: mouse, po, read-out: ED50, inhibition of acute phosphate uptake into plasma; for Emax, maximum inhibition of phosphate uptake into plasma: oral
Procedure: Male C57BL/6 male mice (n = 7–9/group) at the age of about 8–9 weeks (21–29 g) were fasted overnight and throughout the study. Mice were dosed orally with varying doses of LY3358966 SDD dissolved in water or a PVP‐VA vehicle control. Fifteen minutes later, a radioactive phosphate dosing solution (200 µl of 16.25 mM Na2HPO4, 0.9% saline, pH 7.4 supplemented with about one million dpm of H3 ^33PO4) was given by oral gavage. This dose of phosphate was chosen because it approximates the mouse equivalent of the amount of bioavailable phosphate in a human meal which is 4 mg/kg phosphorus, or 320 mg phosphorus for an 80 kg person on a phosphate restricted diet. Fifteen minutes later, blood was collected and radioactivity in the plasma was determined by scintillation counting. The inhibition of acute phosphate uptake into plasma by LY3358966 was determined by comparing the counts in the plasma from LY3358966‐treated animals to that in the plasma of the vehicle‐treated animals. ED50 values were then determined with a 4‐parameter logistic curve fitting model using GraphPad Prism 7.04.
To test the ability of LY3358966 to inhibit intestinal NPT2b activity in mice over time, the above mice were bled again at 3 h post compound dose to determine the residual radioactivity in the plasma. At 4 h post compound dose, the animals were again dosed with phosphate using threefold more H3 ^33PO4 than used in the first oral dose. Fifteen minutes later, blood was collected and radioactivity in the plasma was used to calculate LY3358966 inhibition of phosphate uptake into plasma. For this calculation, the residual counts at 3 h were first subtracted from the final counts at 4 h. The 3‐h counts were typically <15% of the 4‐h counts.

For `CC1(C)CN(C(=O)NCCCCO)CCN1Cc1cccc(C(=O)Nc2sc3c(c2C(=O)Nc2cc(F)c(CCc4ccc(C(=O)O)cc4)c(F)c2)CCCC3)c1` [LY3358966, 4‐[2‐[2,6‐difluoro‐4‐[[2‐[[3‐[[4‐(4‐hydroxybutylcarbamoyl)‐2,2‐dimethyl‐piperazin‐1‐yl]methyl]benzoyl]amino]‐4,5,6,7‐tetrahydrobenzothiophene‐3‐carbonyl]amino]phenyl]ethyl]benzoic acid], the ED50 (15 min post LY3358966 dose) was 0.15 mg/kg, the ED50 (4 h post LY3358966 dose) was 1.1 mg/kg and the “Emax, maximum inhibition of phosphate uptake into plasma” value (15 min post LY3358966 dose) was 74%. For the same compound, the “Emax, maximum inhibition of phosphate uptake into plasma” value (4 h post LY3358966 dose) was 79%.
